According to patent US5488051A, “Substituted 5,6-dihydro-5-oxo-1,4-dithiino-(2,3-d)-pyridazine-2,3-dicarbonitriles, compositions containing them and their use as antimicrobials” (The Dow Chemical Company, priority 1994, dated 1996):
Values after ≈ are worked out from the molar mass of the structure shown. Where two headings read alike, the source gives them in different places.

Key:
[1] = test system: Pseudomonas aeruginosa (Pa); test: MIC for Pseudomonas aeruginosa, nutrient agar; type: cell-based, Pseudomonas aeruginosa ATCC 10145; conditions: 48 hours, read-out: Minimum Inhibitory Concentration (MIC), Pa
In short: (§1)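 Nutrient agar, pH 6.8 or 8.2; cpd 1–500 ppm final in agar (from 1% acetone/water soln), plates dried 24 h; inoculum 10^8 CFU/mL via Steer's replicator; 30° C, 48 h; growth/no growth read.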

Candida albicans (Ca) = test: MIC for Candida albicans, malt yeast agar; type: cell-based, Candida albicans ATCC 10231; conditions: malt yeast agar; 30° C., 48 hours for yeast; read-out: Minimum Inhibitory Concentration (MIC), Ca
In short: (§2)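 Agar dilution on malt yeast agar with compound (from 1% acetone/water solution) at final 0, 1.0, 2.5, 5, 10, 25, 50, 100, 250, 500 ppm. Plates inoculated by replicator with saline suspensions (1:9 diluted) of 7-day cultures; incubated at 30 °C, read at 48 h for yeast and 72 h for fungi.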

[2] = test system: Enterobacter aerogenes (Ea); test: MIC for Enterobacter aerogenes, nutrient agar; type: cell-based, Enterobacter aerogenes ATCC 13048; conditions: Klebsiella aerogenes, nutrient agar, 30° C., 48 hours, read-out: Minimum Inhibitory Concentration (MIC), Ea
In short: as §1

[3] = test system: Aureobasidium pullulan (Ap); test: MIC for Aureobasidium pullulan, malt yeast agar; type: cell-based, Aureobasidium pullulan ATCC 16622; conditions: malt yeast agar; 30° C.; 48 hours for yeast and 72 hours for fungi; read-out: Minimum Inhibitory Concentration (MIC), Ap
In short: as §2

Proteus vulgaris (Pv) = test: MIC for Proteus vulgaris, nutrient agar; type: cell-based, Proteus vulgaris ATCC 881; conditions: 30° C., 48 hours, read-out: Minimum Inhibitory Concentration (MIC), Pv
In short: as §1

Salmonella choleraesuis = test: MIC for Salmonella choleraesuis, nutrient agar; type: cell-based, Salmonella choleraesuis ATCC 10708; conditions: Salmonella enterica, 30° C., 48 hours, read-out: Minimum Inhibitory Concentration (MIC), SC
In short: as §1

[4] = test system: Klebsiella pneumonias (Kp); test: MIC for Klebsiella pneumonias, nutrient agar; type: cell-based, Klebsiella pneumonias ATCC 8308; conditions: 30° C., 48 hours, read-out: Minimum Inhibitory Concentration (MIC), Kp
In short: as §1

Saccharomyces cerevisiae = test: MIC for Saccharomyces cerevisiae, malt yeast agar; type: cell-based, Saccharomyces cerevisiae ATCC 4105; conditions: malt yeast agar, 30° C., 48 hours for yeast, read-out: Minimum Inhibitory Concentration (MIC), Sc
In short: as §2

[5] = test system: Pseudomonas aeruginosa (PRD-10); test: MIC for Pseudomonas aeruginosa PRD-10, nutrient agar; type: cell-based, Pseudomonas aeruginosa ATCC 15442; conditions: 30° C., 48 hours, read-out: Minimum Inhibitory Concentration (MIC), PRD
In short: as §1

Trichoderma viride (Tv) = test: MIC for Trichoderma viride, malt yeast agar; type: cell-based, Trichoderma viride ATCC 8678; conditions: malt yeast agar; 30° C., 72 hours for fungi; read-out: Minimum Inhibitory Concentration (MIC), Tv
In short: as §2

Aspergillus niger (An) = test: MIC for Aspergillus niger, malt yeast agar; type: cell-based, Aspergillus niger ATCC 16404; conditions: malt yeast agar; 30° C., 72 hours for fungi; read-out: Minimum Inhibitory Concentration (MIC), An
In short: as §2

## Cc1ccc(-n2ncc3c(c2=O)SC(C#N)=C(C#N)S3)cc1 [B, 5,6-dihydro-6-(4-methylphenyl)-5-oxo-1,4-dithiino-(2,3-d)-pyridazine-2,3-dicarbonitrile]
[1]; pH 6.8, 30° C.
  MIC: > 500 µg/mL
[1]; pH 8.2, 30° C.
  MIC: > 500 µg/mL
Candida albicans (Ca)
  MIC: < 10 µg/mL
[2]; pH 6.8
  MIC: > 500 µg/mL
[2]; pH 8.2
  MIC: > 500 µg/mL
[3]
  MIC: < 10 µg/mL
Proteus vulgaris (Pv); pH 6.8, nutrient agar
  MIC: 500 µg/mL (≈ 1540 µM)
Proteus vulgaris (Pv); pH 8.2, nutrient agar
  MIC: > 500 µg/mL
Salmonella choleraesuis; pH 6.8, nutrient agar
  MIC: > 500 µg/mL
Salmonella choleraesuis; pH 8.2, nutrient agar
  MIC: > 500 µg/mL
[4]; pH 6.8, nutrient agar
  MIC: 50 µg/mL (≈ 154 µM)
[4]; pH 8.2, nutrient agar
  MIC: > 500 µg/mL
Saccharomyces cerevisiae
  MIC: < 10 µg/mL
[5]; pH 6.8, nutrient agar
  MIC: > 500 µg/mL
[5]; pH 8.2, nutrient agar
  MIC: > 500 µg/mL
Trichoderma viride (Tv)
  MIC: 25 µg/mL (≈ 77.1 µM)
Aspergillus niger (An)
  MIC: 25 µg/mL (≈ 77.1 µM)

## N#CC1=C(C#N)Sc2c(cnn(-c3ccc(Br)cc3)c2=O)S1 [C, 5,6-dihydro-6-(4-bromophenyl)-5-oxo-1,4-dithiino-(2,3-d)-pyridazine-2,3-dicarbonitrile]
[1]; pH 6.8, 30° C.
  MIC: > 500 µg/mL
[1]; pH 8.2, 30° C.
  MIC: > 500 µg/mL
Candida albicans (Ca)
  MIC: 10 µg/mL (≈ 25.7 µM)
[2]; pH 6.8
  MIC: > 500 µg/mL
[2]; pH 8.2
  MIC: > 500 µg/mL
[3]
  MIC: 10 µg/mL (≈ 25.7 µM)
Proteus vulgaris (Pv); pH 6.8, nutrient agar
  MIC: 250 µg/mL (≈ 642 µM)
Proteus vulgaris (Pv); pH 8.2, nutrient agar
  MIC: > 500 µg/mL
Salmonella choleraesuis; pH 6.8, nutrient agar
  MIC: 100 µg/mL (≈ 257 µM)
Salmonella choleraesuis; pH 8.2, nutrient agar
  MIC: > 500 µg/mL
[4]; pH 6.8, nutrient agar
  MIC: > 500 µg/mL
[4]; pH 8.2, nutrient agar
  MIC: > 500 µg/mL
Saccharomyces cerevisiae
  MIC: 10 µg/mL (≈ 25.7 µM)
[5]; pH 6.8, nutrient agar
  MIC: > 500 µg/mL
[5]; pH 8.2, nutrient agar
  MIC: > 500 µg/mL
Trichoderma viride (Tv)
  MIC: 25 µg/mL (≈ 64.2 µM)
Aspergillus niger (An)
  MIC: 10 µg/mL (≈ 25.7 µM)
